Source: ChEMBL document CHEMBL5291721, “A preclinical secondary pharmacology resource illuminates target-adverse drug reaction associations of marketed drugs” (Nat Commun, 2023)

Key:
[1] = target: Beta-3 adrenergic receptor (Homo sapiens, UniProt P13945)
[2] = target: Voltage-dependent N-type calcium channel subunit alpha-1B (Rattus norvegicus, UniProt Q02294); type: functional
[3] = target: 5-hydroxytryptamine receptor 2B (Homo sapiens, UniProt P41595)
Histamine H2 receptor = Histamine H2 receptor (Homo sapiens, UniProt P25021)
[4] = target: T1, 5-hydroxytryptamine receptor 1A (Homo sapiens, UniProt P08908)
T1 sequence (P08908 whole entry): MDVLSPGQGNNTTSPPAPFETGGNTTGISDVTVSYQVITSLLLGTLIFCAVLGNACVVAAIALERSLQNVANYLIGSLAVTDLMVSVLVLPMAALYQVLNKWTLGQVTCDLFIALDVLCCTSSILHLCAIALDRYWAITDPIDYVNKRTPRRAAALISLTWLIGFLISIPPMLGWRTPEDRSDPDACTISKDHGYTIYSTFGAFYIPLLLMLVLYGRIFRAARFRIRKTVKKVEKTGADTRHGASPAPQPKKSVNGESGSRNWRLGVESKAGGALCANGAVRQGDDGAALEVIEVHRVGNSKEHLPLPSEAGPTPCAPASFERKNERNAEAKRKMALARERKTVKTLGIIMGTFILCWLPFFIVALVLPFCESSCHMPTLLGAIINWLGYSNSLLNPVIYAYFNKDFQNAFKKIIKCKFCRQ

[5] = target: T2, Gastrin/cholecystokinin type B receptor (Homo sapiens, UniProt P32239)
T2 sequence (P32239 whole entry): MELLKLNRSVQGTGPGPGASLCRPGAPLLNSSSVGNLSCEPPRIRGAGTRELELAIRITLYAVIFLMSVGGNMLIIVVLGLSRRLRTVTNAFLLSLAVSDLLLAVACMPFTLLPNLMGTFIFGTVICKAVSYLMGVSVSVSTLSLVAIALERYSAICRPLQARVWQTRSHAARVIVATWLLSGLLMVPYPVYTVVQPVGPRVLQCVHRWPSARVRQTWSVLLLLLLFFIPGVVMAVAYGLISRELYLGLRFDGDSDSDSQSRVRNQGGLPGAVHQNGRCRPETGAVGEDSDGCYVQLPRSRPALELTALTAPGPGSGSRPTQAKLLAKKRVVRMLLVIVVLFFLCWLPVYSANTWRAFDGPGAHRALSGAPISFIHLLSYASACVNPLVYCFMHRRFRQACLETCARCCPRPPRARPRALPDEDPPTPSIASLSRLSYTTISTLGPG

[6] = target: Gamma-aminobutyric acid receptor subunit alpha-1/alpha-2/beta-2/gamma-2 (Homo sapiens, UniProt P14867+P18507+P47869+P47870); type: functional, cell-based
Androgen receptor [7] = target: T3, Androgen receptor (Rattus norvegicus, UniProt P15207)
T3 sequence (P15207 whole entry): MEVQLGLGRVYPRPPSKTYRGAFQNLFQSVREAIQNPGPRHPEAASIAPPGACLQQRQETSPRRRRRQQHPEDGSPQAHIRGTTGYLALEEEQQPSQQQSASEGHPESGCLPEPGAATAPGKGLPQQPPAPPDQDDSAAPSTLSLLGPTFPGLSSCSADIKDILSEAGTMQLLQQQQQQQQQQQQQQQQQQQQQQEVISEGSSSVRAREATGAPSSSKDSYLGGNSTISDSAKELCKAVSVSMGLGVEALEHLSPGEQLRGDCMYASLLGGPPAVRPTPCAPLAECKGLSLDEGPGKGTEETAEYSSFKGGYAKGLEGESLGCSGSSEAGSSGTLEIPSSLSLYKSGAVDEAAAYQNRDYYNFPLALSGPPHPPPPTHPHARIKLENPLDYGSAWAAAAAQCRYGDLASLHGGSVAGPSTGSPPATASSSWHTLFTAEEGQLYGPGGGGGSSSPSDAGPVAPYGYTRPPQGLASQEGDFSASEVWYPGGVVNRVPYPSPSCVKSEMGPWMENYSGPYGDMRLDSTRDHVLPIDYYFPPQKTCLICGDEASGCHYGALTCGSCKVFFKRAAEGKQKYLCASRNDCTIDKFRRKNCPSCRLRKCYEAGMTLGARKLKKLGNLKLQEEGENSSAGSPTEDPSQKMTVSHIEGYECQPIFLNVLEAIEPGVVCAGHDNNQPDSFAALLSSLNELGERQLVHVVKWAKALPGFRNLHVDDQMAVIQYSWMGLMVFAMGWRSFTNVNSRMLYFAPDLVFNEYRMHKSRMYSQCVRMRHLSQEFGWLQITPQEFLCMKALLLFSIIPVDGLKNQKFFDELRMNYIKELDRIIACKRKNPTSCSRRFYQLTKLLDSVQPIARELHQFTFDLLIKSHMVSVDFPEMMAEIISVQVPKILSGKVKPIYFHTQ

[8] = target: T4, Alpha-2A adrenergic receptor (Homo sapiens, UniProt P08913)
T4 sequence (P08913 whole entry): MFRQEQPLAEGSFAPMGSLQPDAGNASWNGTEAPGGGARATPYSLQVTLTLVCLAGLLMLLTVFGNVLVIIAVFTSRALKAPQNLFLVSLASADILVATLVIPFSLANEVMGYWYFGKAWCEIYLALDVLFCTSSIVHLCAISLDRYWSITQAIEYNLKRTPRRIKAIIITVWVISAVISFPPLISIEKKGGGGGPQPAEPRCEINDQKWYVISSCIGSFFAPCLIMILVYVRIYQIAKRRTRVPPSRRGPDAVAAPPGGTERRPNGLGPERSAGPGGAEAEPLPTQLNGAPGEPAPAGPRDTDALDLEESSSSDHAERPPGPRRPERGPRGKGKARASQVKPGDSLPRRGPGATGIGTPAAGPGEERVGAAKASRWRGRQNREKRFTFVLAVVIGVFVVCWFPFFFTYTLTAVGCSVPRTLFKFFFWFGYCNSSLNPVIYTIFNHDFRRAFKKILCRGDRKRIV

Androgen receptor [9] = target: T3, Androgen receptor; type: functional
Further: assay procedure not described here.

Chain of Histamine H2 receptor (P25021 whole entry): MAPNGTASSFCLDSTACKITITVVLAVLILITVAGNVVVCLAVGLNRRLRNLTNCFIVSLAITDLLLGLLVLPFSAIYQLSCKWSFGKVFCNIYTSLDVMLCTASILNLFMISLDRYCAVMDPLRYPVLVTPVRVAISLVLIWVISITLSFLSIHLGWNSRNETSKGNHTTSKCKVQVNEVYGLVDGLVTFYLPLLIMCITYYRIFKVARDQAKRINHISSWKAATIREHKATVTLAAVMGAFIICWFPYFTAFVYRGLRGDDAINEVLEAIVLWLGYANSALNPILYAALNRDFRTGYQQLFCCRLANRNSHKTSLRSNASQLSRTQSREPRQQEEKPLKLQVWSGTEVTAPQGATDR
Chain of Voltage-dependent N-type calcium channel subunit alpha-1B (Q02294 whole entry): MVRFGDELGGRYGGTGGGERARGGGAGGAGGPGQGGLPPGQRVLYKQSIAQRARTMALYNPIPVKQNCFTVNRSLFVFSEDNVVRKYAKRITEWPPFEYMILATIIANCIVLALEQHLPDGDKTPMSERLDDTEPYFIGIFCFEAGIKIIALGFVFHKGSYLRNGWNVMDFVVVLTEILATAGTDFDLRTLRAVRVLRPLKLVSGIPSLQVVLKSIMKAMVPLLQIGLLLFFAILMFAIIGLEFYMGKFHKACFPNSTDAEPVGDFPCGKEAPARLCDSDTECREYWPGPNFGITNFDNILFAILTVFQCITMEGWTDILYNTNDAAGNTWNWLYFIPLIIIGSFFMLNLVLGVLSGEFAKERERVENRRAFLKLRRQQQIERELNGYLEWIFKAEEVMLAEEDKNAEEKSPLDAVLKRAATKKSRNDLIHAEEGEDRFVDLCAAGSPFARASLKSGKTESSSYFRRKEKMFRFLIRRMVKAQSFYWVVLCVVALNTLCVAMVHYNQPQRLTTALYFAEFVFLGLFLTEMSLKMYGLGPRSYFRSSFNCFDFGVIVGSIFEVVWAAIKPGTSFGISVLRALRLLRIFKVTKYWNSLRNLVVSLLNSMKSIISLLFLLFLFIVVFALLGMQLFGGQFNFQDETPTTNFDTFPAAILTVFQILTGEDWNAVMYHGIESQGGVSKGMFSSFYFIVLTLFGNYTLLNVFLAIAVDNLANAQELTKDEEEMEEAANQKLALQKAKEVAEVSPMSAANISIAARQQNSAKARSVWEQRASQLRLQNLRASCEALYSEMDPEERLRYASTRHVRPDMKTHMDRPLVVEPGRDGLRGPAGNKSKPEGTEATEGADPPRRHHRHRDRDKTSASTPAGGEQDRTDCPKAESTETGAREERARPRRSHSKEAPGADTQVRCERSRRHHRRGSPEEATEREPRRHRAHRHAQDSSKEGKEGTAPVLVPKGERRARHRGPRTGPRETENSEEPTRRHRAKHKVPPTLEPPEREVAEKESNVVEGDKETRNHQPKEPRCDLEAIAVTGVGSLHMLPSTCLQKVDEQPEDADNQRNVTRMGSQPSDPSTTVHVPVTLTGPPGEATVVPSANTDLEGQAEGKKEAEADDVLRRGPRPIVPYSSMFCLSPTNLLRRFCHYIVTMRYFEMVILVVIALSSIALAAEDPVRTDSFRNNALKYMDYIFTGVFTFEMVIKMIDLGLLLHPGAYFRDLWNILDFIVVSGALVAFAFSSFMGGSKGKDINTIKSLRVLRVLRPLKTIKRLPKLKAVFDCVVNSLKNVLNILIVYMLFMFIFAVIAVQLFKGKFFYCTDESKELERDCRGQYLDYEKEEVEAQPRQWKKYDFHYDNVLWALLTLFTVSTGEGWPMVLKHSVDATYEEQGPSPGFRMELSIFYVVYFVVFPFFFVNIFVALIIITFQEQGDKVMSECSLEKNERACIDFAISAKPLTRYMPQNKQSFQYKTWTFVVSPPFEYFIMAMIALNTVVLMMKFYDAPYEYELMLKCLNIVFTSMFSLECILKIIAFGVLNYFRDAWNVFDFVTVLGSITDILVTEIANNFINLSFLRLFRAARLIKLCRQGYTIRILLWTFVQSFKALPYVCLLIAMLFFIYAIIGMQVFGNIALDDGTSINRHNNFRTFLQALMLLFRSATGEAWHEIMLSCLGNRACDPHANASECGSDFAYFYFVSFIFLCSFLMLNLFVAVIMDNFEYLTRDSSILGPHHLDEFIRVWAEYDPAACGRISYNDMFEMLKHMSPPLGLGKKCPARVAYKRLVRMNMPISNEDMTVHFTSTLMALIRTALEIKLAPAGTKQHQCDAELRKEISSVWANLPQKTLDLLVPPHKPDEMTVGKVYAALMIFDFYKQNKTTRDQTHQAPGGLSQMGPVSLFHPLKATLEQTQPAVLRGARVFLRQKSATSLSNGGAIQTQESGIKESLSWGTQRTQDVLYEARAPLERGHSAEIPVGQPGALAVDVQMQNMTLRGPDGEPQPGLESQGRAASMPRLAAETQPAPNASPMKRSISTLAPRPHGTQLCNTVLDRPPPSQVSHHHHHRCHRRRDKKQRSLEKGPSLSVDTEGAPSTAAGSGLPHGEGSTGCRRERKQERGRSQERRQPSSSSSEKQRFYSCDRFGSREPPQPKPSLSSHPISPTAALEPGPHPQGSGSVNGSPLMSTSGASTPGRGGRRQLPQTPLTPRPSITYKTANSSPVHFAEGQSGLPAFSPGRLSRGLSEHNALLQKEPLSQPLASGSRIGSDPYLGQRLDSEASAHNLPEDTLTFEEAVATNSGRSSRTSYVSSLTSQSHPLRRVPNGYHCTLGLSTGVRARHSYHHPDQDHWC
Chain of 5-hydroxytryptamine receptor 2B (P41595 whole entry): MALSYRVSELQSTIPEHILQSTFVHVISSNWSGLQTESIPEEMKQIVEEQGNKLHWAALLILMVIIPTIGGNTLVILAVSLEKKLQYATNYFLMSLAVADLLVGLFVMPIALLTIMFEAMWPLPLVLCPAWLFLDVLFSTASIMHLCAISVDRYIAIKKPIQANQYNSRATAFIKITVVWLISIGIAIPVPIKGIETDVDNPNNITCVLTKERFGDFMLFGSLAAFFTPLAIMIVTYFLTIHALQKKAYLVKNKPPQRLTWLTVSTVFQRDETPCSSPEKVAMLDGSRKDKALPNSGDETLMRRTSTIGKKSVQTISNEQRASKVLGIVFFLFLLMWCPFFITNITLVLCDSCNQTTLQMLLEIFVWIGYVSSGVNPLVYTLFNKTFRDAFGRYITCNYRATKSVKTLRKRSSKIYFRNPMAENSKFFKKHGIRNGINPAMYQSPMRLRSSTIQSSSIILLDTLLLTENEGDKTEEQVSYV
Chain of Beta-3 adrenergic receptor (P13945 whole entry): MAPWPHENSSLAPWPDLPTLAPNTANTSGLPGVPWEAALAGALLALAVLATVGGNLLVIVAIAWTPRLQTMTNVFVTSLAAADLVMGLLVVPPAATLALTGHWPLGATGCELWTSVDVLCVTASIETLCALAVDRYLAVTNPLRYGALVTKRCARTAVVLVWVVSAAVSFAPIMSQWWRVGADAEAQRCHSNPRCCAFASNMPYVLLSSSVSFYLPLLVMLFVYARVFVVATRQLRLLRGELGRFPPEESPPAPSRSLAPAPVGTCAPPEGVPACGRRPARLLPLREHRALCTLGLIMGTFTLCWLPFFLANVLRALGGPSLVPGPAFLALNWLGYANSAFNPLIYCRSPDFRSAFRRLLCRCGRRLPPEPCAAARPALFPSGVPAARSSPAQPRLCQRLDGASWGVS

## Clc1ccccc1C(c1ccccc1)(c1ccccc1)n1ccnc1 [CLOTRIMAZOLE]
[1]
  AC50: 8.78 µM
[2]
  AC50: > 10 µM
[3]
  AC50: > 10 µM
Histamine H2 receptor
  AC50: 17.4 µM
[4]
  AC50: > 10 µM

## Brc1c(NC2=NCCN2)ccc2nccnc12 [BRIMONIDINE]
[5]
  AC50: > 30 µM

## CC(CC1c2ccccc2CCc2ccccc21)CN(C)C (stereo not given) [BUTRIPTYLINE]
[6]
  AC50: > 30 µM

## COc1ccc2c3c1O[C@H]1[C@@H](O)CC[C@H]4[C@@H](C2)N(C)CC[C@@]341 [DIHYDROCODEINE]
[6]
  AC50: > 30 µM

## NC(=O)OCC(COC(N)=O)c1ccccc1 [FELBAMATE]
Androgen receptor [7]
  AC50: > 10 µM

## C#C[C@]1(O)CC[C@H]2[C@@H]3[C@H](C)CC4=C(CCC(=O)C4)[C@H]3CC[C@@]21C [TIBOLONE]
[5]
  AC50: > 30 µM

## CC/C(=C(\c1ccccc1)c1ccc(OCCN(C)C)cc1)c1ccccc1 [TAMOXIFEN]
[1]
  AC50: 6.61 µM
[2]
  AC50: > 10 µM
[8]
  AC50: > 10 µM
[3]
  AC50: 0.896 µM
Histamine H2 receptor
  AC50: 1.75 µM
[4]
  AC50: > 10 µM

## Cc1nnc2n1-c1ccc(Cl)cc1C(c1ccccc1Cl)=NC2 [TRIAZOLAM]
[5]
  AC50: > 30 µM
[4]
  AC50: > 10 µM

## O=C1C(O)=C([C@H]2CC[C@H](c3ccc(Cl)cc3)CC2)C(=O)c2ccccc21 [ATOVAQUONE]
[5]
  AC50: > 30 µM
Androgen receptor [9]
  AC50: > 30 µM

## CC(C)(C)NCC(O)COc1cccc2c1CCC(=O)N2 (stereo not given) [CARTEOLOL]
Androgen receptor [7]
  AC50: > 10 µM

## Fc1ccc(C(c2ccccc2)(c2ccccc2F)n2ccnc2)cc1 (stereo not given) [FLUTRIMAZOLE]
[5]
  AC50: 25 µM
Androgen receptor [9]
  AC50: > 30 µM

## Nc1nc(Cl)nc2c1ncn2[C@H]1C[C@H](O)[C@@H](CO)O1 [CLADRIBINE]
[5]
  AC50: > 30 µM

## COc1cccc(C2(O)CCCCC2CN(C)C)c1 (stereo not given) [TRAMADOL]
[1]
  AC50: > 30 µM
[5]
  AC50: > 30 µM
[2]
  AC50: > 10 µM
[8]
  AC50: > 10 µM
[3]
  AC50: > 10 µM
Histamine H2 receptor
  AC50: > 10 µM
Androgen receptor [7]
  AC50: > 30 µM

## C[C@@H]1O[C@@H](O[C@@H]2C=C3CC[C@@H]4[C@H](CC[C@]5(C)[C@@H](c6ccc(=O)oc6)CC[C@]45O)[C@@]3(C)CC2)[C@H](O)[C@H](O)[C@H]1O [PROSCILLARIDIN]
[5]
  AC50: > 30 µM
Androgen receptor [9]
  AC50: > 30 µM

## NC(=O)CN1CC(O)CC1=O (stereo not given) [OXIRACETAM]
[5]
  AC50: > 30 µM
[6]
  AC50: > 30 µM
Androgen receptor [9]
  AC50: > 30 µM

## COc1ccc(CCNCC(O)COc2cccc(C)c2)cc1OC (stereo not given) [BEVANTOLOL]
Androgen receptor [7]
  AC50: > 10 µM
[4]
  AC50: 1.56 µM

## Cc1c(OCC(F)(F)F)ccnc1C[S+]([O-])c1nc2ccccc2[nH]1 (stereo not given) [LANSOPRAZOLE]
[1]
  AC50: > 30 µM
[5]
  AC50: 22 µM
[2]
  AC50: > 10 µM
[8]
  AC50: > 10 µM
[3]
  AC50: > 10 µM
Histamine H2 receptor
  AC50: 8.52 µM
[4]
  AC50: > 10 µM
